The text below walks through data of US11220491B2, “Photoprotective compositions containing Malassezia-derived compounds and/or chemical analogs thereof” (Versicolor Technologies, LLC, priority 2018, dated 2022).

pEC50: −log10 of the molar value. “And” between values parts separate entries of the source, which are not always exact repeats. Equal values may be shown once. Read-outs that look alike come from different tables or passages of the source.

For series [1], the target named is T1, arylhydrocarbon receptor (AhR) (Homo sapiens, UniProt P35869).
T1 sequence (P35869 11-848): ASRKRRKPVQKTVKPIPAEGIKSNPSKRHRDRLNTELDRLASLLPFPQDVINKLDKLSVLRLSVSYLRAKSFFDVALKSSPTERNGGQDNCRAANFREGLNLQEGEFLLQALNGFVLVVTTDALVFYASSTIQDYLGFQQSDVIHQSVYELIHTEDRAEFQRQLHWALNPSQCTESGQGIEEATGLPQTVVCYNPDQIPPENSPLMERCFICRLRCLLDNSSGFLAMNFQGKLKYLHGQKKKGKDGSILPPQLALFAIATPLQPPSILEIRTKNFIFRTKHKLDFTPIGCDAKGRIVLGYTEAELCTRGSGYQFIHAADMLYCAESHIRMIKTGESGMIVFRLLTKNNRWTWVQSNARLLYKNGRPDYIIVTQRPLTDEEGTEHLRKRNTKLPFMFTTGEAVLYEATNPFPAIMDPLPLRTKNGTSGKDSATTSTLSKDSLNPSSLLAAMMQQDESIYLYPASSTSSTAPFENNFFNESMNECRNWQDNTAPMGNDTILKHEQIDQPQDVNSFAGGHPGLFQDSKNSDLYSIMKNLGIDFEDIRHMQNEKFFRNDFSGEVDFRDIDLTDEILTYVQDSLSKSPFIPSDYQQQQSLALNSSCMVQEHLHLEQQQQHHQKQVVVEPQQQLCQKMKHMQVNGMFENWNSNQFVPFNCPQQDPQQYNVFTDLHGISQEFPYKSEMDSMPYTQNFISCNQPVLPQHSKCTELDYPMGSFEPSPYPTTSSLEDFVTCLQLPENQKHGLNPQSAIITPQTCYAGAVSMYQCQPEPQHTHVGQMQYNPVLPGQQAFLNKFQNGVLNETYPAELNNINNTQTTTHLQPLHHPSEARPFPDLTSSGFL
Further details: HepG2 cells stably transfected with an AhR-responsive luciferase reporter gene plasmid; host or cells: HepG2-AhR-Luc (HepG2 stably transfected with an AhR-responsive luciferase reporter plasmid). The conditions noted are these: cited from earlier work.

Series [2] addresses T1, arylhydrocarbon receptor (AhR). Kind of series: HepG2-AhR-Luciferase assay. The conditions noted are these: for EC50: EC50 (uM), 24 hours of treatment.
Series [3] has as its system MeWo cells. Kind of series: Annexin V assay, additional evaluation (Example 8). In kind it is cell-based. To be noted: 100, 10, 1 μM; 6, 24, 48, 72 hours. How it is done:
(§1) To further investigate the impact of test compounds on apoptosis, multiple readouts, covering different stages of apoptosis, were carried out on both MeWo and WM115 cells. Both cell types were treated with test compounds at 3 doses (100 μM, 10 μM, and 1 μM). Staurosporine was used as a positive control. […] The test compounds evaluated were CV-8684. CV-8685, and CV-8688.
(§2) Cell seeding was performed as discussed above with the following exceptions: the final cell density was 4,000 cells/well for 6-hour and 24-hour detections, whereas 2,000 cells/well were used for 48-hour and 72-hour detections. For each time point. 384-well clear bottom plates (Corning 3712) and solid white bottom plates (Corning 3570) were prepared. The plates were incubated as discussed above.
(§3) For preparation of the compound source plate, each test compound was dissolved in DMSO to 10 mM stock. Two additional concentrations were generations by 10-fold dilution to 1 mM and 0.1 mM. Staurosporine was used as positive control and 1% DMSO was employed as vehicle (negative) control. The compound source plate was spun at room temperature at 1,000 RPM for 1 minute and agitated using a plate shaker for 2 minutes.
(§4) 400 nL of test compound was transferred from the compound source plate to 384-well culture plates using Echo550 liquid handler. After 6, 24, 48, and 72 hours, the plates were removed from the incubator for detections.
(§5) Culture media was removed and cells were washed twice with PBS. 20 μL of pre-mixed annexin V-FITC working solution was added to each well. The cells were incubated at room temperature for 20 minutes. Plates were read using Acumen eX3 to count the number of FITC-positive cells. The relative activity was calculated according to the following formula: Relative Activity (%)=100%×(Countsample/Countvehicle).

The subject of series [4] is WM115 cells. Kind of series: Annexin V assay, additional evaluation (Example 8). In kind it is cell-based. To be noted: 100, 10, 1 μM; 6, 24, 48, 72 hours. The protocol:
as §1, §2, §3, §4, §5

The test system of series [5] is MeWo cells. Kind of series: CellTiter-Glo cell viability assay (Example 9). In kind it is cell-based. The conditions noted are these: 100, 10, 1 μM; 6, 24, 48, 72 hours. The protocol: (§6) CellTiter-Glo® 2.0 assay was purchased from Promega. Cell seeding, preparation of the compound source plate, and exposure of cells to test compounds were performed as described in Example 8.
(§7) CellTiter-Glo® reagents were thawed and equilibrated to room temperature before the experiment. 40 μL of CellTiter-Glo® reagent was then added to each well for detection (at 1:1 ratio to culture medium). The plates were then incubated at room temperature for 30 minutes and read using EnSpire (PerkinElmer) plate reader. The remaining activity was calculated according to the following formula: Remaining Activity (%)=100%×(Lumsample−Lumbkg)/(Lumvehicle−Lumbkg).

Series [6] concerns WM115 cells. Kind of series: CellTiter-Glo cell viability assay (Example 9). In kind it is cell-based. To be noted: 100, 10, 1 μM; 6, 24, 48, 72 hours. How it is done: as §6, §7
The test system of series [7] is MeWo cells. Kind of series: Lactate dehydrogenase (LDH) release assay (Example 10). In kind it is cell-based. The conditions noted are these: 100, 10, 1 μM; 6, 24, 48, 72 hours. The protocol:
(§8) The LDH assay quantitatively measures lactate dehydrogenase (“LDH”) released into the media from damaged cells as a biomarker for cytotoxicity and cytolysis.
(§9) CytoTox-ONE™ Homogenous Membrane Integrity Assay was purchased from Promega. Cell seeding, preparation of the compound source plate, and exposure of cells to test compounds were performed as described in Example 8.
(§10) Plates were then centrifuged at 1,000 RPM for 1 minute. 20 μL of cell culture medium was transferred into a new 384-well black solid plate. Then, 20 μL of CytoTOX-ONE™ was added into each well and incubated at room temperature for 10 minutes. Afterward, 10 μL of stop solution were added to each well, and the plates were agitated at 500 rpm for 1 minute. Plates were read using an excitation wavelength of 560 nm and an emission wavelength of 590 nm on EnSpire. The relative activity was calculated according to the following formula: Relative Activity (%)=100%×(Lumsample−Lumbkg)/(Lumvehicle−Lumbkg).

Series [8] relates to WM115 cells. Described as above. It counts as cell-based. To be noted: 100, 10, 1 μM; 6, 24, 48, 72 hours. How it is done: as §8, §9, §10
The test system of series [9] is MeWo cells. Kind of series: Cell morphology after treatment (Example 6). It counts as cell-based. The conditions noted are these: 100 μM, 6 hours.
Series [10] relates to WM115 cells. Kind of series: Cell morphology after treatment (Example 6). It counts as cell-based. The conditions noted are these: 100 μM, 6 hours.
For series [11] the following is noted: cited from earlier work.
Series [12] has as its system Candida albicans. To be noted: cited from earlier work.
Series [13] has as its system staphylococci. To be noted: cited from earlier work.

Consider `O=Cc1c2[nH]c3ccccc3c2cc2[nH]c3ccccc3c12` [6-formylindolo[3,2-b] carbazole (FICZ), 6-formylindolo[3,2-b] carbazole], for which the AhR agonism entry in [1] is “Agonists”.

In series [2] (Table 2), `O=C(Cc1c[nH]c2ccccc12)Cc1c[nH]c2ccccc12` [AB12976] showed an EC50 of 16.5 µM.

The compound `O=C[C@@H]1Cc2c([nH]c3ccccc23)[C@@H](c2c[nH]c3ccccc23)CN1` [AB17011, Malassezia Indole A] gave an EC50 in [2] (Table 2) of 35.8 µM.

For `O=C(c1c[nH]c2ccccc12)c1nccc2c1[nH]c1ccccc12` [AB17014, Pityriacitrin], in series [2] (Table 2), a half-maximal response (EC50) required 3.46 µM.

`COC(=O)c1c(C(c2c[nH]c3ccccc23)C2CC2)[nH]c2ccccc12` (stereo not drawn) [AB17151]: in series [2] (Table 2), the EC50 is 13.7 µM. Against the preceding compound, the EC50 is about 4-fold higher.

Take `Cc1ccc2c(c1)[nH]c1c(C)c3c(cc12)[nH]c1ccccc13` [AB17225]: the EC50 in series [2] (Table 2) worked out at 3.93 µM.

Turning to `O=Cc1c(Cc2c[nH]c3ccccc23)[nH]c2ccccc12` [CV-8684, Malassezin], the “apoptosis induction (annexin V binding)” value in series [3] and in [4] was “induced apoptosis at the highest concentration tested after 6 hours of treatment” throughout. The “inhibition of cell viability” value in [5] and in series [6] was “dose-dependent inhibition of cell viability” in each case. Besides, the LDH release result in series [7] and in series [8] was “did not induce significant release” each time. Further, the cell morphology entry in [9] and in series [10] was “significantly affected” in each case. Further, the EC50 in series [2] (Table 1) was 4.19 µM.

With `c1ccc2c(c1)[nH]c1cc3c(cc12)[nH]c1ccccc13` [CV-8685, indolo[3,2-b] carbazole], the “apoptosis induction (annexin V binding)” value in series [3] is listed as 48 hours of treatment appeared to elicit apoptosis; in [4], “showed the induction effect with 24 hours of treatment”. Further, the “inhibition of cell viability” value in [6] is “inhibitory effect on WM115 cell viability in a dose-dependent manner only after 24-hour treatment”. Also, the LDH release entry in series [8] was “dose-dependent induction effect on LDH release”. Further, the cell morphology result in [10] is given as “only affect WM115”. In addition, the EC50 was found to be 6.6 µM in series [2] (Table 1) and 15.2 µM in series [2] (Table 2).

In series [2] (Table 1), `OCc1c(Cc2c[nH]c3ccccc23)[nH]c2ccccc12` [CV-8803] came in with a concentration giving a half-maximal response (EC50) of 13.9 µM.

Compound `CC(c1[nH]c2ccccc2c1CO)c1c[nH]c2ccccc12` (stereo not drawn) [CV-8804] registered an EC50 in series [2] (Table 1) of 15.7 µM.

`Cc1ccc2cc3c(ccc4ccccc43)c3c2c1CC3` [Compound 3-MC, 3-methylcholanthrene, reference compound] had a pEC50 in series [2] of 5.36.

With `O=Cc1c(C(=O)c2c[nH]c3ccccc23)[nH]c2ccccc12` [Compound A5 (CV-8819)], in series [2] (Table 2), a half-maximal effect (EC50) was put at 4.11 µM.

In turn, `CC(c1[nH]c2ccccc2c1C(=O)O)c1c[nH]c2ccccc12` (stereo not drawn) [Compound B10] gave an EC50 in [2] (Table 2) of 4.29 µM.

For the compound `COC(c1[nH]c2ccccc2c1C=O)c1c[nH]c2ccccc12` (stereo not drawn) [Compound H (AB12509)], the EC50 in series [2] (Table 2) was found to be 11.6 µM.

The compound `Cc1ccc2c(Cc3[nH]c4ccccc4c3C=O)c[nH]c2c1` [Compound I (CV-8686)] had an EC50 in series [2] (Table 2) of 5.45 µM.

`CC(c1[nH]c2ccccc2c1C=O)c1c[nH]c2ccccc12` (stereo not drawn) [Compound II (CV-8688] had an EC50 in [2] (Table 2) of 13.4 µM.

As to `Cc1ccc2c(c1)[nH]c1cc3c(cc12)[nH]c1ccccc13` [Compound IV (CV-8687)], the EC50 in series [2] (Table 2) is 33.6 µM.

`O=C1Nc2ccccc2/C1=C1/Nc2ccccc2C1=O` [Indirubin]: in series [1], the AhR agonism result is on record as “known agonist”.

`c1ccc2[nH]c(Cc3c[nH]c4ccccc34)cc2c1` [Malassezin Precursor] showed an EC50 in series [2] (Table 2) of 37.3 µM.

Regarding `COc1ccc2[nH]c([S+]([O-])Cc3ncc(C)c(OC)c3C)nc2c1` (stereo not drawn) [Omeprazole, omeprazole, reference compound], the EC50 in [2] (Table 1) is 21.4 µM; in series [2] (Table 2) it was 42.3 µM and 39.8 µM.

Turning to `Clc1cc2c(cc1Cl)Oc1cc(Cl)c(Cl)cc1O2` [TCDD, 2,3,7,8-tetrachlorodibenzodioxin, reference compound], the EC50 in series [2] (Table 2) was 0.0018 µM and 0.0031 µM.

Take `Nc1c(C(=O)O)c2nc3c(C(=O)O)cccc3oc-2cc1=O` [cinnabarinic acid]: the AhR agonism result in series [1] is “Agonists”.

`Nc1ccccc1C(=O)CC(N)C(=O)O` (stereo not drawn) [kynurenine]: the AhR agonism entry in [1] was “Agonists”.

With Pityriacitrin, the SPF is 1.4 in series [11] (1.25% cream), 1.5 in [11] (2.5% cream) and 1.7 in [11] (5% cream). The UV-protective effect entry in series [12] and in series [13] was “UV-protective effect” in each case. For the same compound, the toxicity entry in [12] and in series [13] was “no toxicity” in each case.
